In patent publication US7772228B2, “Method for treatment of bacterial infections with once or twice-weekly administered rifalazil” (priority 1998, dated 2010):
In brackets after ≈: the same amount, converted by molar mass. Where two headings read alike, the source gives them in different places.

Columns and labels:
[1] = test system: M. tuberculosis strain Erdman; conditions: cited from earlier work; for reduction of bacterial load in lungs and spleens, comparison of drugs: 20 mg/kg, five times per week for four weeks
M. tuberculosis [2] = experiment: Clinical trial 005, change in Log10 CFU/mL of sputum of tuberculosis patients; assay type: in vivo, human; conditions: INH 400 mg daily, N 6
Procedure: Dosages of isoniazid and rifampin were adjusted to body weight of patients. […] When the patient's body weight was greater than 45 kg, isoniazid was administered as 600 mg/dose.
(§1) Definite diagnosis and evaluation of treatment efficacy requires direct examination of sputum for the presence of M. tuberculosis. The extent of M. tuberculosis infection is determined by number of bacteria able to form colonies and is expressed as colony forming units. When the number of colony forming units (CFU) is high, the infection is unhindered. When the CFU decreases, the number of active M. tuberculosis bacteria decreases. The CFU, typically expressed as Log10, have therefore important diagnostic and treatment evaluative value.
Dosages of isoniazid and rifampin depended on the patient's weight and were as above. The number of patients in each study group are presented as the N value.
(§2) The overall clinical studies and conditions were similar to those described in Example 1. Due to ethical considerations, there were no placebo (control) patients in this study. […] Both latest regimens were experimental and performed under IND permit from FDA.

[3] = Clinical trial 005, WBC, ANC and platelet counts in tuberculosis patients; assay type: in vivo, human; conditions: INH daily
Procedure: as §1
The four tables 17-20 show hematology data which are separated according to Groups 1-4. The group treatment corresponds to those seen in Table 16. […] In particular, the ANC value is considered to be a very meaningful safety index as it directly relates to a patient's ability to fight infection.
as §2

M. tuberculosis [4] = conditions: BACTEC, cited from earlier work; for MIC50 50% inhibition / MIC90 90% inhibition: thirty clinical isolates
[5] = in vivo; cited from earlier work
M. avium = conditions: 18 strains, agar dilution; cited from earlier work
M. tuberculosis [6] = conditions: 22 strains, agar dilution; cited from earlier work
[7] = test system: M. tuberculosis in human macrophages; conditions: intracellular, cited from earlier work
[8] = test system: extracellular M. tuberculosis; conditions: cited from earlier work
Helicobacter pylori = test system: Helicobacter pylori; design: unit of the concentration uncertain; conditions: time-kill, broth medium, 0.31 (unit uncertain); cited from earlier work

CC[C@@H](CO)NCCN[C@@H](CC)CO [EMB, ethambutol]
cell counts in lungs compared to late controls ([1]; four weeks treatment): reduced cell counts in lungs

NNC(=O)c1ccncc1 [INH, isoniazid]
Change from Sputum Baseline to Day 15, Max (M. tuberculosis [2]): −0.92 Log10 CFU/mL
Change from Sputum Baseline to Day 15, Mean (SD) (M. tuberculosis [2]): −1.58 Log10 CFU/mL
Change from Sputum Baseline to Day 15, Med (M. tuberculosis [2]): −1.63 Log10 CFU/mL
Change from Sputum Baseline to Day 15, Min (M. tuberculosis [2]): −2.23 Log10 CFU/mL
ANC Max ([3]; Day 4): 22.51 K/CU MM
ANC Mean (SD) ([3]; Day 4): 7.62 K/CU MM
ANC Med ([3]; Day 4): 5.47 K/CU MM
ANC Min ([3]; Day 4): 3.79 K/CU MM
Platelets Max ([3]; Day 4): 431.70 K/CU MM
Platelets Mean (SD) ([3]; Day 4): 309.38 K/CU MM
Platelets Med ([3]; Day 4): 305.56 K/CU MM
Platelets Min ([3]; Day 4): 153.70 K/CU MM
WBC Max ([3]; Day 4): 27.19 K/CU MM
WBC Mean (SD) ([3]; Day 4): 10.88 K/CU MM
WBC Med ([3]; Day 4): 8.81 K/CU MM
WBC Min ([3]; Day 4): 6.37 K/CU MM
ANC Max ([3]; Day 8): 9.32 K/CU MM
ANC Mean (SD) ([3]; Day 8): 5.96 K/CU MM
ANC Med ([3]; Day 8): 5.22 K/CU MM
ANC Min ([3]; Day 8): 3.34 K/CU MM
Platelets Max ([3]; Day 8): 396.20 K/CU MM
Platelets Mean (SD) ([3]; Day 8): 310.13 K/CU MM
Platelets Med ([3]; Day 8): 357.20 K/CU MM
Platelets Min ([3]; Day 8): 185.60 K/CU MM
WBC Max ([3]; Day 8): 12.06 K/CU MM
WBC Mean (SD) ([3]; Day 8): 9.08 K/CU MM
WBC Med ([3]; Day 8): 8.63 K/CU MM
WBC Min ([3]; Day 8): 6.21 K/CU MM
ANC Max ([3]; Day 11): 6.57 K/CU MM
ANC Mean (SD) ([3]; Day 11): 5.29 K/CU MM
ANC Med ([3]; Day 11): 5.06 K/CU MM
ANC Min ([3]; Day 11): 4.17 K/CU MM
Platelets Max ([3]; Day 11): 447.50 K/CU MM
Platelets Mean (SD) ([3]; Day 11): 336.10 K/CU MM
Platelets Med ([3]; Day 11): 354.20 K/CU MM
Platelets Min ([3]; Day 11): 208.10 K/CU MM
WBC Max ([3]; Day 11): 10.03 K/CU MM
WBC Mean (SD) ([3]; Day 11): 8.29 K/CU MM
WBC Med ([3]; Day 11): 8.10 K/CU MM
WBC Min ([3]; Day 11): 7.27 K/CU MM
ANC Max ([3]; Day 15): 8.84 K/CU MM
ANC Mean (SD) ([3]; Day 15): 5.95 K/CU MM
ANC Med ([3]; Day 15): 6.04 K/CU MM
ANC Min ([3]; Day 15): 3.51 K/CU MM
Platelets Max ([3]; Day 15): 412.70 K/CU MM
Platelets Mean (SD) ([3]; Day 15): 298.59 K/CU MM
Platelets Med ([3]; Day 15): 302.00 K/CU MM
Platelets Min ([3]; Day 15): 184.60 K/CU MM
WBC Max ([3]; Day 15): 12.40 K/CU MM
WBC Mean (SD) ([3]; Day 15): 9.23 K/CU MM
WBC Med ([3]; Day 15): 8.49 K/CU MM
WBC Min ([3]; Day 15): 6.82 K/CU MM
ANC Max ([3]; Day 28): 7.87 K/CU MM
ANC Mean (SD) ([3]; Day 28): 5.63 K/CU MM
ANC Med ([3]; Day 28): 4.60 K/CU MM
ANC Min ([3]; Day 28): 4.41 K/CU MM
Platelets Max ([3]; Day 28): 398.80 K/CU MM
Platelets Mean (SD) ([3]; Day 28): 297.27 K/CU MM
Platelets Med ([3]; Day 28): 266.00 K/CU MM
Platelets Min ([3]; Day 28): 197.00 K/CU MM
WBC Max ([3]; Day 28): 11.15 K/CU MM
WBC Mean (SD) ([3]; Day 28): 8.31 K/CU MM
WBC Med ([3]; Day 28): 7.06 K/CU MM
WBC Min ([3]; Day 28): 6.70 K/CU MM
ANC Max ([3]; Day 42): 7.2 K/CU MM
ANC Mean (SD) ([3]; Day 42): 6.96 K/CU MM
ANC Med ([3]; Day 42): 6.96 K/CU MM
ANC Min ([3]; Day 42): 6.72 K/CU MM
Platelets Max ([3]; Day 42): 345.00 K/CU MM
Platelets Mean (SD) ([3]; Day 42): 297.10 K/CU MM
Platelets Med ([3]; Day 42): 297.10 K/CU MM
Platelets Min ([3]; Day 42): 249.20 K/CU MM
WBC Max ([3]; Day 42): 9.23 K/CU MM
WBC Mean (SD) ([3]; Day 42): 7.98 K/CU MM
WBC Med ([3]; Day 42): 7.98 K/CU MM
WBC Min ([3]; Day 42): 6.73 K/CU MM
cell counts in lungs compared to early controls ([1]; four weeks treatment): significantly reduced cell counts in lungs
cell counts in lungs compared to late controls ([1]; four weeks treatment): reduced cell counts in lungs

C[C@H]1COc2c(N3CCN(C)CC3)c(F)cc3c(=O)c(C(=O)O)cn1c23 [LEV]
cell counts in lungs compared to late controls ([1]; four weeks treatment): reduced cell counts in lungs

NC(=O)c1cnccn1 [PZA, pyrazinamide]
CFUs in the spleen ([1]; rifalazil 20 mg/kg, PZA 150 mg/kg, four weeks): did not significantly reduce CFUs compared to controls

CO[C@H]1/C=C/O[C@@]2(C)Oc3c(C)c(O)c4c(c3C2=O)C2=NC3(CCN(CC(C)C)CC3)NC2=C(NC(=O)/C(C)=C\C=C\[C@H](C)[C@H](O)[C@@H](C)[C@@H](O)[C@@H](C)[C@H](OC(C)=O)[C@@H]1C)C4=O [Rifabutin, rifabutin, reference compound]
MIC (M. tuberculosis [4]; reference strain H37Rv): 0.016 µg/mL (≈ 0.0189 µM)
MIC (M. tuberculosis [4]; reference strain Kurono): 0.016 µg/mL (≈ 0.0189 µM)
MIC50 50% inhibition (M. tuberculosis [4]): 0.063 µg/mL (≈ 0.0744 µM)
MIC90 90% inhibition (M. tuberculosis [4]): 8.0 µg/mL (≈ 9.44 µM)
reduction of bacterial load in lungs and spleens, comparison of drugs [1]: No significant differences
adverse reactions at high doses [5]: generalized arthralgia and uveitis occurred
incidence of neutropenia [5]: significantly greater than in patients treated with placebo
skin discoloration [5]: < 1%

CO[C@H]1/C=C/O[C@@]2(C)Oc3c(C)c(O)c4c(O)c(c(/C=N/N5CCN(C)CC5)c(O)c4c3C2=O)NC(=O)/C(C)=C\C=C\[C@H](C)[C@H](O)[C@@H](C)[C@@H](O)[C@@H](C)[C@H](OC(C)=O)[C@@H]1C [Rifampin, rifampin, reference compound]
MIC90 (M. avium): 100 µg/mL (≈ 122 µM)
MIC90 (M. tuberculosis [6]): 100 µg/mL (≈ 122 µM)
MIC (M. tuberculosis [4]; reference strain Kurono): 0.063 µg/mL (≈ 0.0766 µM)
MIC50 50% inhibition (M. tuberculosis [4]): 4.0 µg/mL (≈ 4.86 µM)
MIC90 90% inhibition (M. tuberculosis [4]): >128.0 µg/mL
MBC ([7]; strain Atencio): 0.5 µg/mL (≈ 0.608 µM)
MIC ([7]; strain Atencio): 0.25 µg/mL (≈ 0.304 µM)
MBC ([7]; strain Erdman): 0.5 µg/mL (≈ 0.608 µM)
MIC ([7]; strain Erdman): 0.12 µg/mL (≈ 0.146 µM)
MBC ([7]; strain H37Rv): 1.0 µg/mL (≈ 1.22 µM)
MIC ([7]; strain H37Rv): 0.25 µg/mL (≈ 0.304 µM)
MBC ([8]; strain Atencio): 0.25 µg/mL (≈ 0.304 µM)
MIC ([8]; strain Atencio): 0.25 µg/mL (≈ 0.304 µM)
MBC ([8]; strain Erdman): 0.5 µg/mL (≈ 0.608 µM)
MIC ([8]; strain Erdman): 0.12 µg/mL (≈ 0.146 µM)
MBC ([8]; strain H37Rv): 0.5 µg/mL (≈ 0.608 µM)
MIC ([8]; strain H37Rv): 0.12 µg/mL (≈ 0.146 µM)
reduction of bacterial load in lungs and spleens, comparison of drugs [1]: No significant differences

CC1(C)S[C@@H]2[C@H](NC(=O)[C@H](N)c3ccc(O)cc3)C(=O)N2[C@H]1C(=O)O [amoxicillin, reference compound]
decrease in CFU/mL after 24 hours (Helicobacter pylori): 1 log
